system: HCI-001 (organoid from a triple-negative breast cancer xenograft); experiment: CTG-3D luminescence at 96 h relative to day-0 seeding control (ratio to day 0); higher = more growth / less cytotoxicity; PDxO 3D drug screen, 96 h, CTG-3D normalised to day-0 seeding control.; settings: 1 µM; days in culture: 240

| Structure (SMILES) | CTG-3D luminescence at 96 h |
| --- | --- |
| COc1cc2c(Oc3ccc4[nH]c(C)cc4c3F)ncnc2cc1OCCCN1CCCC1 [cediranib] | 1.93 |
| CC(C)n1nc(-c2ccc3oc(N)nc3c2)c2c(N)ncnc21 [sapanisertib] | 0.551 |
| Cc1cc(Nc2ncnc3ccc(NC4=NC(C)(C)CO4)cc23)ccc1Oc1ccn2ncnc2c1 [tucatinib] | 1.37 |
| C[C@H](NC(=O)CCC(F)(F)F)C(=O)N[C@@H]1C(=O)N(CCO)c2ncccc2-c2ccccc21 [crenigacestat] | 1.36 |
| C[C@]12CC[C@@H]3c4ccc(O)cc4C[C@@H](CCCCCCCCC[S+]([O-])CCCC(F)(F)C(F)(F)F)[C@H]3[C@@H]1CC[C@@H]2O (stereo partly specified) [fulvestrant] | 1.68 |
| O=C(c1ccc(F)c(F)c1Nc1ccc(I)cc1F)N1CC(O)([C@@H]2CCCCN2)C1 [cobimetinib] | 1.32 |
| O=C(/C=C/c1cccnc1)NCCCCC1CCN(C(=O)c2ccccc2)CC1 [FK866] | 0.113 |
| CS(=O)(=O)c1ccc(C(=O)Nc2ccc(Cl)c(-c3ccccn3)c2)c(Cl)c1 [vismodegib] | 1.5 |
| C=CCn1c(=O)c2cnc(Nc3ccc(N4CCN(C)CC4)cc3)nc2n1-c1cccc(C(C)(C)O)n1 [adavosertib] | 0.618 |

same assay, conditions: 1 µM; days in culture: 260

| Structure (SMILES) | CTG-3D luminescence at 96 h |
| --- | --- |
| COc1cc2c(Oc3ccc4[nH]c(C)cc4c3F)ncnc2cc1OCCCN1CCCC1 [cediranib] | 1.81 |
| CC(C)n1nc(-c2ccc3oc(N)nc3c2)c2c(N)ncnc21 [sapanisertib] | 0.652 |
| Cc1cc(Nc2ncnc3ccc(NC4=NC(C)(C)CO4)cc23)ccc1Oc1ccn2ncnc2c1 [tucatinib] | 0.756 |
| C[C@H](NC(=O)CCC(F)(F)F)C(=O)N[C@@H]1C(=O)N(CCO)c2ncccc2-c2ccccc21 [crenigacestat] | 1.54 |
| C[C@]12CC[C@@H]3c4ccc(O)cc4C[C@@H](CCCCCCCCC[S+]([O-])CCCC(F)(F)C(F)(F)F)[C@H]3[C@@H]1CC[C@@H]2O (stereo partly specified) [fulvestrant] | 1.59 |
| O=C(c1ccc(F)c(F)c1Nc1ccc(I)cc1F)N1CC(O)([C@@H]2CCCCN2)C1 [cobimetinib] | 1.58 |
| O=C(/C=C/c1cccnc1)NCCCCC1CCN(C(=O)c2ccccc2)CC1 [FK866] | 0.107 |
| CS(=O)(=O)c1ccc(C(=O)Nc2ccc(Cl)c(-c3ccccn3)c2)c(Cl)c1 [vismodegib] | 1.57 |
| C=CCn1c(=O)c2cnc(Nc3ccc(N4CCN(C)CC4)cc3)nc2n1-c1cccc(C(C)(C)O)n1 [adavosertib] | 1.04 |

same assay, conditions: 1 µM; days in culture: 269

| Structure (SMILES) | CTG-3D luminescence at 96 h |
| --- | --- |
| COc1cc2c(Oc3ccc4[nH]c(C)cc4c3F)ncnc2cc1OCCCN1CCCC1 [cediranib] | 2.09 |
| CC(C)n1nc(-c2ccc3oc(N)nc3c2)c2c(N)ncnc21 [sapanisertib] | 0.559 |
| Cc1cc(Nc2ncnc3ccc(NC4=NC(C)(C)CO4)cc23)ccc1Oc1ccn2ncnc2c1 [tucatinib] | 1.38 |
| C[C@H](NC(=O)CCC(F)(F)F)C(=O)N[C@@H]1C(=O)N(CCO)c2ncccc2-c2ccccc21 [crenigacestat] | 1.39 |
| C[C@]12CC[C@@H]3c4ccc(O)cc4C[C@@H](CCCCCCCCC[S+]([O-])CCCC(F)(F)C(F)(F)F)[C@H]3[C@@H]1CC[C@@H]2O (stereo partly specified) [fulvestrant] | 1.45 |
| O=C(c1ccc(F)c(F)c1Nc1ccc(I)cc1F)N1CC(O)([C@@H]2CCCCN2)C1 [cobimetinib] | 1.26 |
| O=C(/C=C/c1cccnc1)NCCCCC1CCN(C(=O)c2ccccc2)CC1 [FK866] | 0.0522 |
| CS(=O)(=O)c1ccc(C(=O)Nc2ccc(Cl)c(-c3ccccn3)c2)c(Cl)c1 [vismodegib] | 1.13 |
| C=CCn1c(=O)c2cnc(Nc3ccc(N4CCN(C)CC4)cc3)nc2n1-c1cccc(C(C)(C)O)n1 [adavosertib] | 0.496 |

same assay, conditions: 1 µM; days in culture: 327

| Structure (SMILES) | CTG-3D luminescence at 96 h |
| --- | --- |
| COc1cc2c(Oc3ccc4[nH]c(C)cc4c3F)ncnc2cc1OCCCN1CCCC1 [cediranib] | 1.48 |
| CC(C)n1nc(-c2ccc3oc(N)nc3c2)c2c(N)ncnc21 [sapanisertib] | 0.759 |
| Cc1cc(Nc2ncnc3ccc(NC4=NC(C)(C)CO4)cc23)ccc1Oc1ccn2ncnc2c1 [tucatinib] | 1.44 |
| C[C@H](NC(=O)CCC(F)(F)F)C(=O)N[C@@H]1C(=O)N(CCO)c2ncccc2-c2ccccc21 [crenigacestat] | 1.24 |
| C[C@]12CC[C@@H]3c4ccc(O)cc4C[C@@H](CCCCCCCCC[S+]([O-])CCCC(F)(F)C(F)(F)F)[C@H]3[C@@H]1CC[C@@H]2O (stereo partly specified) [fulvestrant] | 1.64 |
| O=C(c1ccc(F)c(F)c1Nc1ccc(I)cc1F)N1CC(O)([C@@H]2CCCCN2)C1 [cobimetinib] | 1.43 |
| O=C(/C=C/c1cccnc1)NCCCCC1CCN(C(=O)c2ccccc2)CC1 [FK866] | 0.0812 |
| CS(=O)(=O)c1ccc(C(=O)Nc2ccc(Cl)c(-c3ccccn3)c2)c(Cl)c1 [vismodegib] | 1.93 |
| C=CCn1c(=O)c2cnc(Nc3ccc(N4CCN(C)CC4)cc3)nc2n1-c1cccc(C(C)(C)O)n1 [adavosertib] | 1.18 |

Source: the supplement of paper PMC8882468
